# ChEMBL document CHEMBL1154311, “Isolation of the protein tyrosine phosphatase 1B inhibitory metabolite from the marine-derived fungus Cosmospora sp. SF-5060” (Bioorg Med Chem Lett, 2009)
# Columns and labels:
# [1] = target: T1, Tyrosine-protein phosphatase non-receptor type 1 (Homo sapiens, UniProt P18031); test: Inhibition of PTP1B mediated pNPP hydrolysis
# T1 sequence (P18031 whole entry): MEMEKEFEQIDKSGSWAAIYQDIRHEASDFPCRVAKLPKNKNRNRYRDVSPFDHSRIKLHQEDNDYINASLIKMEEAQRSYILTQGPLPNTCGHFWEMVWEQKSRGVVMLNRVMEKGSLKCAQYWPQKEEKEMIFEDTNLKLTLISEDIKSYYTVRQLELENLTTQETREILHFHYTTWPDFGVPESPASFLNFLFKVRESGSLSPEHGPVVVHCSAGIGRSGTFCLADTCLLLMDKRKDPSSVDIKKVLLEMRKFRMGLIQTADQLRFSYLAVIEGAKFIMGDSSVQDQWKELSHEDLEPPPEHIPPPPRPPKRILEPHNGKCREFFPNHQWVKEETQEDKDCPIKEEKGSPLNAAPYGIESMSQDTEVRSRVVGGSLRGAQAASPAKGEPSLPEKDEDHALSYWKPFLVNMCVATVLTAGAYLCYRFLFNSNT
# [2] = target: T2, Tyrosine-protein phosphatase non-receptor type 1 (Homo sapiens) (UniProt P18031); test: Inhibition of PTP1B mediated pNPP hydrolysis at 178 uM
# T2 sequence (whole entry): T1 sequence (P18031 whole entry)
# [3] = target: Receptor-type tyrosine-protein phosphatase F (Homo sapiens, UniProt P10586); test: Inhibition of LAR
# Receptor-type tyrosine-protein phosphatase F, sequence (P10586 whole entry): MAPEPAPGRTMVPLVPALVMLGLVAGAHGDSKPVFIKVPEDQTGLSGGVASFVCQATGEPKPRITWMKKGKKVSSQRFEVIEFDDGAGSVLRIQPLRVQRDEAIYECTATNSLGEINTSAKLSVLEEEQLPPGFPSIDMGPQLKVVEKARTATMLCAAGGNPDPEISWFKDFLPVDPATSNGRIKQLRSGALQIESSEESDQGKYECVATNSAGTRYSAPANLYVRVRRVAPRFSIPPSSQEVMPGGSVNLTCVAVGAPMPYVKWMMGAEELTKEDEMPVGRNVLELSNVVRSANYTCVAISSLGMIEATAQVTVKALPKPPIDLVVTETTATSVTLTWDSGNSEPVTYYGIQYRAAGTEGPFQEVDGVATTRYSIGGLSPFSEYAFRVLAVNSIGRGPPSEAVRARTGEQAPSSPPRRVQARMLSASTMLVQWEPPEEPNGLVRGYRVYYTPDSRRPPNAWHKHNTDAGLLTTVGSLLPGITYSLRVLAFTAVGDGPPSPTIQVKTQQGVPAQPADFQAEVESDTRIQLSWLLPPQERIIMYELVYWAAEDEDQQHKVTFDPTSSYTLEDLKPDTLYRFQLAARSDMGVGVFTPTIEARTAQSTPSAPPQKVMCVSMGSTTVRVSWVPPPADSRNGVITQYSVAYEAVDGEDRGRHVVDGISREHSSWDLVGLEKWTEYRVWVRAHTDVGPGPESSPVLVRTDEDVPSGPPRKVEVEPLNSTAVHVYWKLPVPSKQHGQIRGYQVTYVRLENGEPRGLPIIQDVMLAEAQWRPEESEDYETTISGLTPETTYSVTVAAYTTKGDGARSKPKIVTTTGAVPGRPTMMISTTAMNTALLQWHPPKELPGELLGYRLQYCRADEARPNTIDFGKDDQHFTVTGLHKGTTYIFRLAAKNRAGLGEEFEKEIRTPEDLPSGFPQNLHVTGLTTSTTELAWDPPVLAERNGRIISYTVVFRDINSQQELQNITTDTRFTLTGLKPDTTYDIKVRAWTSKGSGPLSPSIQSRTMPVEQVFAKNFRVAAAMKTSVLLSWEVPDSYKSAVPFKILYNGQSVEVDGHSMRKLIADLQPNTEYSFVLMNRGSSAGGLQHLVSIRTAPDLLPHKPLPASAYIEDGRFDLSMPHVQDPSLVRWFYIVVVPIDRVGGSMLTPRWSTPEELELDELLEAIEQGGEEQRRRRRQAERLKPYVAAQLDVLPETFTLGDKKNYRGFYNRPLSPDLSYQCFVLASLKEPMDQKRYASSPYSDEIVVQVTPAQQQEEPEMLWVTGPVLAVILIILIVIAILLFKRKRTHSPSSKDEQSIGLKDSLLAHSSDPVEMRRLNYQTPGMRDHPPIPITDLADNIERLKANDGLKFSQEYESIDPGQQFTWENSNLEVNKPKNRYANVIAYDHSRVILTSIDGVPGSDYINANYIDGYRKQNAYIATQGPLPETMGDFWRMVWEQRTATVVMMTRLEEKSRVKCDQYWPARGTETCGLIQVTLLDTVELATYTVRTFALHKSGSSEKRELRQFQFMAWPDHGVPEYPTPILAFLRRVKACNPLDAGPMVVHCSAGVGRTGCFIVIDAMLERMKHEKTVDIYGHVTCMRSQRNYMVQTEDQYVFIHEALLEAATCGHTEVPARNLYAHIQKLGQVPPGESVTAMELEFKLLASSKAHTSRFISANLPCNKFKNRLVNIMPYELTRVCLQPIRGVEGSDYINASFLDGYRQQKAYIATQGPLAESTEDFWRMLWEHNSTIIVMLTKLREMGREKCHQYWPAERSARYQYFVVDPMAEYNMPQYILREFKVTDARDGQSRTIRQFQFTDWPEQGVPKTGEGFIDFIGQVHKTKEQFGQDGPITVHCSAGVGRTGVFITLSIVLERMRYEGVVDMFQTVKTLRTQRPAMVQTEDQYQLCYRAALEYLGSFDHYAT
# [4] = target: T3, Receptor-type tyrosine-protein phosphatase C (Homo sapiens, UniProt P08575); test: Inhibition of CD45
# T3 sequence (P08575 whole entry): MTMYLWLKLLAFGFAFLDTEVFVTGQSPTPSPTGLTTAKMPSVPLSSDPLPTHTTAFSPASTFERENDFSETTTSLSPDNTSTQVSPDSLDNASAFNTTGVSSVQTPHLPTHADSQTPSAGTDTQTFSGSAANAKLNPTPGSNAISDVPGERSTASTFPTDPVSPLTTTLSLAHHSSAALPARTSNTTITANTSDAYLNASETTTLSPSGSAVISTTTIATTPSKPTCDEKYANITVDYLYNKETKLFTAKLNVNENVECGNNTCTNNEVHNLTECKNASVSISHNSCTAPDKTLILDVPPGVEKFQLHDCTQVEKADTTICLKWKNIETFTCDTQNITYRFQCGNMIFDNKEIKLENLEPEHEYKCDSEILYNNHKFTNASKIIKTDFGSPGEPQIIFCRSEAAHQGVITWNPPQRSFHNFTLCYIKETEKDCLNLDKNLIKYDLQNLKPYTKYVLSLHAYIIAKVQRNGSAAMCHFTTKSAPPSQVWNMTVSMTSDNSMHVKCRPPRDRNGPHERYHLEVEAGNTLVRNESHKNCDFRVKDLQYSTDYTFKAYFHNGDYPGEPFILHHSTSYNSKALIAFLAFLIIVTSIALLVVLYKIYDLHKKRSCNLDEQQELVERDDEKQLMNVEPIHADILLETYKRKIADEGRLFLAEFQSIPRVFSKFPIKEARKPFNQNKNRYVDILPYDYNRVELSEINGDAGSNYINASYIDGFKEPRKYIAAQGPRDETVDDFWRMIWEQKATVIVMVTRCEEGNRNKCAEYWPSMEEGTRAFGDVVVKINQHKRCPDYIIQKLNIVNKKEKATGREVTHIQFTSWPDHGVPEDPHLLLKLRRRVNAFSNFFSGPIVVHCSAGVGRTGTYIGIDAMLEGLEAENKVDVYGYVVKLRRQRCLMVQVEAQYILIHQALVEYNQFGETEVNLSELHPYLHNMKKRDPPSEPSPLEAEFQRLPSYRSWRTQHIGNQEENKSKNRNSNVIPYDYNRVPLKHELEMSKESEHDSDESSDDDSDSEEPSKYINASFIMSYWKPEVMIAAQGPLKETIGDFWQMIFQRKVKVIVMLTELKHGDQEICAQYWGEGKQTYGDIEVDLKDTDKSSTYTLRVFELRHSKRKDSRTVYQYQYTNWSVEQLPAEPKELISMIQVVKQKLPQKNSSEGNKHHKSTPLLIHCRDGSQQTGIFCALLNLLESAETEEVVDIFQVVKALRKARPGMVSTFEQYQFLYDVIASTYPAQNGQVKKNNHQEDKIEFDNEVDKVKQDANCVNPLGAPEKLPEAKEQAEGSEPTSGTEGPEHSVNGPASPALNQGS
# [5] = target: T4, Tyrosine-protein phosphatase non-receptor type 2 (Homo sapiens, UniProt P17706); test: Inhibition of TCPTP
# T4 sequence (P17706 whole entry): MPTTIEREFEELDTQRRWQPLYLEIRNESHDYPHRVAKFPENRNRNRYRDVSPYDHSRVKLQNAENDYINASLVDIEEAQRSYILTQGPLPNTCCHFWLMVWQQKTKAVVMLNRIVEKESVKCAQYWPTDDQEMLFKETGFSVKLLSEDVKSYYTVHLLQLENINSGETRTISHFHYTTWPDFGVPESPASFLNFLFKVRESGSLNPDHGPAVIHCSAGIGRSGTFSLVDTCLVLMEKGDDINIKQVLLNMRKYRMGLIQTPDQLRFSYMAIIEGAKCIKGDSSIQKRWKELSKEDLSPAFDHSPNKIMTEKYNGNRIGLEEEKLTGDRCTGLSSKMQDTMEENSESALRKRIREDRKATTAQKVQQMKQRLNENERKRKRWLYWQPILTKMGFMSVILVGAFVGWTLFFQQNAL
# [6] = target: T1, Tyrosine-protein phosphatase non-receptor type 1; test: Competitive inhibition of PTP1B mediated pNPP hydrolysis by Lineweaver-Burke plot analysis
# [7] = target: T5, Tyrosine-protein phosphatase non-receptor type 11 (Homo sapiens, UniProt Q06124); test: Inhibition of SHP-2
# T5 sequence (Q06124 whole entry): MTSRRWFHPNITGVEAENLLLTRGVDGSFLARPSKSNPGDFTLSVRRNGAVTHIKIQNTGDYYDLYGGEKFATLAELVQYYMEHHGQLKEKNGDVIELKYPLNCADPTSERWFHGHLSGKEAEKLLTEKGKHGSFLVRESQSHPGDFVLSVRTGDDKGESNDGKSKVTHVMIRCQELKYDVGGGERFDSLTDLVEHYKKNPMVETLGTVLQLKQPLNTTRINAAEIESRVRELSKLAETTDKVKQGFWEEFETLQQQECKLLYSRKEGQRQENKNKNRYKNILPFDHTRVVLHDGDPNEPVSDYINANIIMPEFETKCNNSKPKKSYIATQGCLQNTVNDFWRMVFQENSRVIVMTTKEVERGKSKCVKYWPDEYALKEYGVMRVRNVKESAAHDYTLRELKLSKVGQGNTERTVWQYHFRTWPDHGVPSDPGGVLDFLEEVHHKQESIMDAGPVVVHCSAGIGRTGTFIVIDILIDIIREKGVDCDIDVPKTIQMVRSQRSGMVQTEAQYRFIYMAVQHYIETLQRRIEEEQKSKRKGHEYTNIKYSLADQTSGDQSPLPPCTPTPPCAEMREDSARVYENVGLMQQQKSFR
Compound,IC50 ([1]; read-out: IC50),IC50 [1],also measured
CCCCCCCCCCCCCCCc1cc(O[C@@H]2O[C@H](CO)[C@@H](O)[C@H](O)[C@H]2O)cc(O)c1C(=O)Oc1cc(C)c(C(=O)OC)c(O)c1,17000 nM,,
CCCCCCCCCCCCCCCc1cc(O)cc(O)c1C(=O)Oc1cc(C)c(C(=O)O)c(O)c1,220 nM,,
CCCCCCCCCCCCCCCc1cc(O[C@@H]2O[C@H](CO)[C@@H](O)[C@H](O)[C@H]2O)cc(O)c1C(=O)O,590 nM,Dose-dependent effect,
Cc1cc(O)cc(O)c1C(=O)O,,,inhibition [2]: 45%
CCCCCCCCCCCCCCCc1cc(O[C@@H]2O[C@H](CO)[C@@H](O)[C@H](O)[C@H]2O)cc(O)c1C(=O)Oc1cc(C)c(C(=O)O)c(O)c1 [AQUASTATIN A],190 nM,Dose-dependent effect,IC50 [3]: > 44000 nM; IC50 [4]: > 44000 nM; IC50 [5]: 510 nM; Ki [6]: 100 nM; IC50 [7]: > 44000 nM
